Source: patent publication US10683273B2, “Compounds as DNA probes, methods and applications thereof” (JAWAHARLAL NEHRU CENTRE FOR ADVANCED SCIENTIFIC RESEARCH, priority 2015, dated 2020)

Key:
[1] = tested on: DNA; assay: Stokes shift from absorption and emission spectra, in presence of DNA; format: physicochemical; details: present disclosure
Experimental: The UV-vis absorption and emission spectra are recorded on Agilent Technologies Cary series UV-vis-NIR absorbance and Cary eclipse fluorescence spectrophotometers, respectively. Thermal denaturation (UV-melting) studies are carried out on Cary 5000 UV-vis-NIR spectrophotometer equipped with Cary temperature controller in the range of 10° C. to 90° C. with a ramp rate of 1° C./min. The variable temperature/wavelength mode is used. Absorption is monitored at 260 nm with regular 5° C. intervals. Melting temperatures (Tm) of DNA samples are calculated from the first derivatives of the absorption vs. temperature curves (thermal denaturation or melting curves) obtained by monitoring at 260 nm.
The molecular interactions of QCy-DT is studied by evaluating the absorption and emission properties in Tris-buffer (100 mM, pH=7.4) under ambient conditions. […] The NIR-fluorescence of QCy-DT arises due to extended through the Cy7 backbone and ICT process. The weak or non-fluorescent behavior of dye molecules in buffer solution is mainly attributed to the intramolecular twisting processes, which cause quenching of the fluorescence of cyanine dyes, solvation with water molecules also aids the fluorescence quenching by means of deactivation of […]. […]

[2] = tested on: CT-DNA; assay: Switch-on NIR-fluorescence enhancement with DNA; format: binding, Calf
Experimental: All the chemicals, reagents, single-stranded oligos (dA20, dT20, dG20, dC20), self-complementary oligos {d(ATAT)5, (D1)mix, Drew-AT, Calf-Thymus DNA (CT-DNA), (DM1, DM2, DM3, DM4, DM5, DM6 and DM7)}, RNA, were purchased from Sigma-Aldrich. ^1H and ^13C NMR spectra were recorded on a Bruker AV-400 MHz spectrometer with chemical shifts reported as parts per million (ppm) (in DMSO-d6, tetramethylsilane as an internal standard) at 20° C. UV-vis absorption and emission spectra were measured in quartz cuvettes of 1 cm path length. High resolution mass spectra (HRMS) were obtained on Agilent Technologies 6538 UHD Accurate-Mass Q-TOF LC/MS spectrometer. All biophysical studies (UV-vis, fluorescence and Cirular dichroism) are carried out at the concentration 0-5 μM of probe, volume=500 μL, temperature=25° C. and time of incubation=2 minutes. […]
The UV-vis absorption and emission spectra are recorded on Agilent Technologies Cary series UV-vis-NIR absorbance and Cary eclipse fluorescence spectrophotometers, respectively. […] Absorption is monitored at 260 nm with regular 5° C. intervals. Melting temperatures (Tm) of DNA samples are calculated from the first derivatives of the absorption vs. temperature curves (thermal denaturation or melting curves) obtained by monitoring at 260 nm. […]

[3] = tested on: MCF-7 cells; assay: Fluorescence study in live cells; format: cell-based; details: live MCF-7 cells, 0.5 and 1 μM, 60 min
Experimental: MCF-7 cells are propagated on 20 mm cover slips in a 6-well plate in DMEM medium supplemented with 10% fetal bovine serum at about 37° C. in a humidified atmosphere containing 5% CO2 till 80% confluency is achieved. Cells are incubated for about 60 min with probe QCy-DT (resuspended in Mili-Q water) at various concentrations (0.5 μM and 1 μM) in a humidified CO2 incubator at about 37° C. Milli-Q water is used as a vehicle control. Following the treatment, fluorescence microscopy is performed using Carl Zeiss AXIO Imager Z1 and the software used for image capturing is AxioVision Rel. 4.8.
In order to check its permeability, cellular uptake studies are carried out in live and fixed conditions of MCF-7 and HeLa cells, respectively. First, MCF-7 cells are incubated with probe QCy-DT (0.5 and 1 μM) without fixing, and live cell imaging is conducted using Carl Zeiss fluorescence microscope as described above. […] Next, HeLa cells are fixed and incubated with QCy-DT (0.5 and 1 μM) along with Hoechst as the control nuclear staining dye. […] Therefore, staining results obtained with live and fixed cells confirmed high cell permeability, efficiency (low staining concentration of 1 μM), and preferential targeting of cell nuclear DNA.

[4] = tested on: P. falciparum strain 3D7; assay: Live fluorescence imaging of malaria parasites; format: cell-based, Plasmodium falciparum; details: 0.5 μM, early trophozoite stage, 30 min
Experimental: P. falciparum strain 3D7 is cultured. Briefly, malaria parasites are cultured in human erythrocytes in T75 flasks with RPMI 1640 (Gibco) supplemented with 10 μg/mL gentamicin (Sigma), 50 μg/mL ampicillin, 0.2% NaHCO3 (Sigma), 0.5% albumax (Invitrogen) and Hypoxanthine (27 mg/L). The culture is maintained under standard conditions (37° C. in 90% nitrogen, 5% CO2, and 5% O2). For synchronization of the parasites, ring-staged parasites are treated with 5% sorbitol at 37° C. for about 5-10 min, followed by washing with pre-warmed incomplete medium twice, and placed back in complete medium. QCy-DT probe (resuspended in Mili-Q water) is added to parasites (25±2 hpi) at a final concentration of 0.5 μM and the parasites are incubated for 30 min at 37° C. Following treatment fluorescence imaging of the parasites is performed using Carl Zeiss AXIO Imager Z1 and the software used for image capturing was AxioVision Rel. 4.8.

C[n+]1c(/C=C/c2ccc(O)c(/C=C/c3sc4ccccc4[n+]3C)c2)sc2ccccc21 [QCy-DT, quinone cyanine-dithiazole]
Stokes shift in presence of DNA [1]: 86 nm
fluorescence enhancement [2]: ~40 fold
cellular uptake / nuclear staining [3]: selective staining of the cell nucleus
parasite staining [4]: specifically stain the parasite nuclei
